The text below walks through data of patent publication EP2030621A1, “Novel substituted pyrimidines as cysteine protease inhibitors” (GLAXO GROUP LIMITED, priority 2007, dated 2009).

Counter-ions that a name gives are not always drawn.

The first test relates to Plasmodium falciparum parasite. Briefly: Whole cell assay: whole cell activity against the parasite.
Conditions: not given
It is filed as cell-based. From the text: Compounds can be evaluated for whole cell actvity against the Plasmadium falciparum parasite according to the procedure described in Sijwali S. and Rosenthal P. J., (2004) Proceedings of the National Academy of Sciences of the United States of America (PNAS) 101(13), 4384-4389 (see in particular "Measurement of Parasite Growth rates and Inhibitor Sensitivity" on page 4385); IC50 values can be calculated as described in Singh A. and Rosenthal P. J., (2001) Antimicrobial Agents and Chemotherapy 45(3), 949-951 (see in particular page 950, first column); synchronised parasites can be prepared as described in Divo A. A. et al., (1985) Protozool. 32, 59-64. 3) In vitro models to evaluate activity against bone metastasis
As a reminder, the IC50 is the concentration at which inhibition is half-maximal. Low readings indicate inhibition by little substance, high ones a need for much substance. The compound `CN1CCN(C2CCN(Cc3ccc(C(=O)NN(c4nc(C#N)ncc4Cl)C4CCCCC4)cc3)CC2)CC1` [Example 40, N'-(5-chloro-2-cyano-4-pyrimidinyl)-N'-cyclohexyl-4-{[4-(4-methyl-1-piperazinyl)-1-piperidinyl]methyl}benzohydrazide] returned an IC50 of 0.0025 to 0.015 µM.

Staying with this test, now noted: Plasmodium falciparum.
`CCN(C)Cc1ccc(C(=O)NN(c2nc(C#N)ncc2Cl)C2CCCC2)cc1` [Example 74, N'-(5-chloro-2-cyano-4-pyrimidinyl)-N'-cyclopentyl-4-{[ethyl(methyl)amino]methyl}benzohydrazide trifluoroacetate] registered an IC50 of 0.015 to 0.15 µM.
Same read-out and setting: next, `CN(CCC(O)c1ccccc1)Cc1ccc(C(=O)NN(c2nc(C#N)ncc2Cl)C2CCCC2)cc1` (centres unmarked) [Example 59, N'-(5-chloro-2-cyano-4-pyrimidinyl)-N'-cyclopentyl-4-{[(3-hydroxy-3-phenylpropyl)(methyl)amino]methyl}benzohydrazide trifluoroacetate]: 0.015 to 0.15 µM; `CN1CCCC(CN2CCN(Cc3ccc(C(=O)NN(c4nc(C#N)ncc4Br)C4CCCC4)cc3)CC2)C1` (centres unmarked) [Example 8, N'-(5-bromo-2-cyano-4-pyrimidinyl)-N'-cyclopentyl-4-({4-[(1-methyl-3-piperidinyl)methyl]-1-piperazinyl}methyl)benzohydrazide trifluoroacetate]: 0.0025 to 0.015 µM; `CN1CCN(C(=O)C2CCN(Cc3ccc(C(=O)NN(c4nc(C#N)ncc4Br)C4CCOCC4)cc3)CC2)CC1` [Example 32, N'-(5-Bromo-2-cyano-4-pyrimidinyl)-4-({4-[(4-methyl-1-piperazinyl)carbonyl]-1-piperidinyl}methyl)-N'-(tetrahydro-2H-pyran-4-yl)benzohydrazide trifluoroacetate]: 0.015 to 0.15 µM.
Same read-out and setting: next, `CC(C)N(Cc1ccc(C(=O)NN(c2nc(C#N)ncc2Cl)C2CCCC2)cc1)C1CCCCC1` [Example 75, N'-(5-chloro-2-cyano-4-pyrimidinyl)-4-{[cyclohexyl(1-methylethyl)amino]methyl}-N'-cyclopentylbenzohydrazide trifluoroacetate]: 0.015 to 0.15 µM; `CCCN(C)Cc1ccc(C(=O)NN(c2nc(C#N)ncc2Cl)C2CCCC2)cc1` [Example 55, N'-(5-chloro-2-cyano-4-pyrlmidinyl)-N'-cycyopentyl-4-{[methyl(propyl)amino]methyl}benzohydrazide trifluoroacetate]: 0.015 to 0.15 µM; `N#Cc1ncc(Br)c(N(NC(=O)c2ccc(CN3CCC(N4CCOCC4)CC3)cc2)C2CCCC2)n1` [Example 6, N'-(5-bromo-2-cyano-4-pyrimidinyl)-N'-cyclopentyl-4-{[4-(4-morpholinyl)-1-piperidinyl]methyl}benzohydrazide trifluoroacetate]: 0.015 to 0.15 µM.
In turn, `CN1CCN(C2CCN(Cc3cccc(C(=O)NN(c4nc(C#N)ncc4Br)C4CCCC4)c3)CC2)CC1` [Example 11, N'-(5-bromo-2-cyano-4-pyrimidinyl)-N'-cyclopentyl-3-{[4-(4-methyl-1-piperazinyl)-1-piperidinyl]methyl}benzohydrazide trifluoroacetate] gave an IC50 of 0.0025 to 0.015 µM.
Same read-out and setting: next, `N#Cc1ncc(Br)c(N(NC(=O)c2ccc(CN3CC(N4CCCC4)C3)cc2)C2CCOCC2)n1` [Example 33, N'-(5-bromo-2-cyano-4-pyrimidinyl)-4-{[3-(1-pyrrolidinyl)-1-azetidinyl]methyl}-N'-(tetrahydro-2H-pyran-4-yl)benzohydrazide trifluoroacetate]: 0.015 to 0.15 µM; `C[C@@H]1CCC[C@H]1N(NC(=O)c1ccc(F)cc1)c1nc(C#N)ncc1Br` (racemic) [Example 43, N'-(5-bromo-2-cyano-4-pyrimidinyl)-4-fluoro-N'-[(1R,2R+1S,2S))-2-methylcyclopentyl]benzohydrazide trifluoroacetate]: 0.015 to 0.15 µM.
